Measured values published in US10065990B2, “Cyclic peptide compound, and preparation method, pharmaceutical composition and use thereof” (HANGZHOU GUANYU BIO-MEDICAL CO., LTD, priority 2013, dated 2018).
Where two headings read alike, the source gives them in different places. Each block holds one compound with its values, some of them ahead of it.

Key:
HDAC3 = HDAC3 (Homo sapiens, UniProt O15379); experiment: HDAC biochemical activity measurement (fluorescent substrate deacetylation);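 note: fluorogenic acetyl-lysine substrate (20 µM) deacetylated by HDAC3, then developer added for 15 min at room temperature, release of fluorophore read at excitation 360 nm, emission 460 nm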; settings: read-out: IC50 HDAC3; HDAC3; 37° C. 30 minutes
Sequence of HDAC3 (O15379 whole entry, species assumed): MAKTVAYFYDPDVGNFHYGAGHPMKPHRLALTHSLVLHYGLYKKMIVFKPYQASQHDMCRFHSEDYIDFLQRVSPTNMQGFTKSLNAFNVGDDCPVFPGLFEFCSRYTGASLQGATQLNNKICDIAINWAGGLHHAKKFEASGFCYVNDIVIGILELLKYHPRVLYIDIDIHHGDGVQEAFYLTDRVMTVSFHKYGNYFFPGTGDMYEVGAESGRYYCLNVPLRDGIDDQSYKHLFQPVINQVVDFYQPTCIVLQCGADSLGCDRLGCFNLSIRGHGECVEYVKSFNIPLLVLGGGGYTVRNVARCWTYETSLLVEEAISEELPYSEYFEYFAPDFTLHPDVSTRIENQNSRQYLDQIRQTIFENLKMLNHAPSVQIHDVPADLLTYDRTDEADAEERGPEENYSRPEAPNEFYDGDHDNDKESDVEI
Sequence of HDAC3 (Q9Y618 395-489 partner limits assumed, species assumed): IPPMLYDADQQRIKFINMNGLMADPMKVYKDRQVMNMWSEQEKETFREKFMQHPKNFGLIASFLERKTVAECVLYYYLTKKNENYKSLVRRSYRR

[1] = tested on: PANC-1 (Pac-1, human pancreatic cancer cells); experiment: MTT cancer cell growth inhibition; type: cell-based; settings: MTT
Summary of the method: (§1)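 Cells seeded at 1500/well in DMEM or RPMI 1640 with 10% FBS, incubated overnight, then exposed to compound at 10^−5 to 10^−10 M final in triplicate for 72 h at 37° C, 5% CO2. MTT added for 4 h, formazan dissolved in DMSO, absorbance read at 570 nm; GI50 derived from viability.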

[2] = tested on: DU145 (human prostate cancer cells); experiment: MTT cancer cell growth inhibition; type: cell-based; settings: MTT
Summary of the method: as §1

[3] = tested on: HCC827 (human non-small cell lung cancer cells); experiment: MTT cancer cell growth inhibition; type: cell-based; settings: MTT, 72 hours incubation, HCC827 cells, read-out: GI50 HCC827
Summary of the method: as §1

[4] = tested on: Hela (human cervical cancer cells); experiment: MTT cancer cell growth inhibition; type: cell-based; settings: MTT
Summary of the method: as §1

[5] = tested on: N-87 (human gastric cancer cells); experiment: MTT cancer cell growth inhibition; type: cell-based; settings: MTT, 72 hours incubation, N-87 cells, read-out: GI50 N-87
Summary of the method: as §1

[6] = tested on: SGC-7901 (human gastric cancer cells); experiment: MTT cancer cell growth inhibition; type: cell-based; settings: MTT, 72 hours incubation, SGC-7901 cells, read-out: GI50 SGC-7901
Summary of the method: as §1

[7] = tested on: MCF-7 (human breast cancer cells); experiment: MTT cancer cell growth inhibition; type: cell-based
Summary of the method: as §1

[8] = tested on: K562 (human leukemia cells); experiment: MTT cancer cell growth inhibition; type: cell-based; settings: MTT, 72 hours incubation, K562 cells, read-out: GI50 K562
Summary of the method: as §1

[9] = tested on: H1975 (non-small cell lung adenocarcinoma); experiment: MTT cancer cell growth inhibition; type: cell-based; settings: MTT, 72 hours incubation, H1975 cells, read-out: GI50 H1975
Summary of the method: as §1

[10] = tested on: Huh-7 (human hepatoma cells); experiment: MTT cancer cell growth inhibition; type: cell-based; settings: MTT, 72 hours incubation, Huh-7 cells, read-out: GI50 Huh-7
Summary of the method: as §1

[11] = tested on: HT1080 (human fibrosarcoma cells); experiment: MTT cancer cell growth inhibition; type: cell-based; settings: MTT
Summary of the method: as §1

[12] = tested on: BGC-823 (human gastric cancer cells); experiment: MTT cancer cell growth inhibition; type: cell-based; settings: MTT
Summary of the method: as §1

[13] = tested on: KBM5-T315I (human chronic myelogenous leukemia); experiment: MTT cancer cell growth inhibition; type: cell-based; settings: MTT, 72 hours incubation, KBM5-T315I cells, read-out: GI50 KBM5-T315I
Summary of the method: as §1

[14] = tested on: U937 (human leukemia cells); experiment: MTT cancer cell growth inhibition; type: cell-based; settings: MTT
Summary of the method: as §1

[15] = tested on: MOLT-4 (human acute lymphoblastic leukemia cells); experiment: MTT cancer cell growth inhibition; type: cell-based; settings: MTT
Summary of the method: as §1

[16] = tested on: MDA-MB-231 (breast cancer cells); experiment: MTT cancer cell growth inhibition; type: cell-based
Summary of the method: as §1

[17] = tested on: A549 (human lung cancer cells); experiment: MTT cancer cell growth inhibition; type: cell-based; settings: MTT
Summary of the method: as §1

[18] = tested on: Bel-7402 (human hepatoma cells); experiment: MTT cancer cell growth inhibition; type: cell-based; settings: MTT, 72 hours incubation, Bel-7402 cells, read-out: GI50 Bel-7402
Summary of the method: as §1

[19] = tested on: lncap (prostate cancer cells); experiment: MTT cancer cell growth inhibition; type: cell-based; settings: MTT
Summary of the method: as §1

[20] = tested on: KBM-5 (human chronic myelogenous leukemia); experiment: MTT cancer cell growth inhibition; type: cell-based; settings: MTT, 72 hours incubation, KBM-5 cells, read-out: GI50 KBM-5
Summary of the method: as §1

HDAC1 = HDAC1 (Homo sapiens, UniProt Q13547); experiment: HDAC biochemical activity measurement (fluorescent substrate deacetylation);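 note: fluorogenic acetyl-lysine substrate (20 µM) deacetylated by HDAC1, then developer releases fluorophore read at 360 nm excitation and 460 nm emission, inhibitor incubated 30 min at 37 °C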
Sequence of HDAC1 (Q13547 whole entry, species assumed): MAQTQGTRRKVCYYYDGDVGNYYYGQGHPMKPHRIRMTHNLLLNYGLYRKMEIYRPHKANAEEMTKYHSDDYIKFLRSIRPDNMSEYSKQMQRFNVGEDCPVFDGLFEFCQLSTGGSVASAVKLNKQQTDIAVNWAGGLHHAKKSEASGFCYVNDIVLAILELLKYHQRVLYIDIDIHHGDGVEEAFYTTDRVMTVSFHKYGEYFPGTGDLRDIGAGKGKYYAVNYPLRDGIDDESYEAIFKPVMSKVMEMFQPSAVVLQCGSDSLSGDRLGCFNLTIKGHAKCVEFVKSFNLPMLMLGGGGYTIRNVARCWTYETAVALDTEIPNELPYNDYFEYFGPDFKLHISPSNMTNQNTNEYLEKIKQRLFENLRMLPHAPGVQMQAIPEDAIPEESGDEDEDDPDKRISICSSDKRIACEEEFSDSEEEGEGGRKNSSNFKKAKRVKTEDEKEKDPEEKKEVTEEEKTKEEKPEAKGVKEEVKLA

HDAC2 = HDAC2 (Homo sapiens, UniProt Q92769); experiment: as above; settings: 37° C. 30 minutes;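 note: HDAC2 enzyme with an acetyl-lysine fluorescent substrate, then developer added, fluorescence read at excitation 360 nm and emission 460 nm, inhibition measured across several compound concentrations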
Sequence of HDAC2 (Q92769 whole entry, species assumed): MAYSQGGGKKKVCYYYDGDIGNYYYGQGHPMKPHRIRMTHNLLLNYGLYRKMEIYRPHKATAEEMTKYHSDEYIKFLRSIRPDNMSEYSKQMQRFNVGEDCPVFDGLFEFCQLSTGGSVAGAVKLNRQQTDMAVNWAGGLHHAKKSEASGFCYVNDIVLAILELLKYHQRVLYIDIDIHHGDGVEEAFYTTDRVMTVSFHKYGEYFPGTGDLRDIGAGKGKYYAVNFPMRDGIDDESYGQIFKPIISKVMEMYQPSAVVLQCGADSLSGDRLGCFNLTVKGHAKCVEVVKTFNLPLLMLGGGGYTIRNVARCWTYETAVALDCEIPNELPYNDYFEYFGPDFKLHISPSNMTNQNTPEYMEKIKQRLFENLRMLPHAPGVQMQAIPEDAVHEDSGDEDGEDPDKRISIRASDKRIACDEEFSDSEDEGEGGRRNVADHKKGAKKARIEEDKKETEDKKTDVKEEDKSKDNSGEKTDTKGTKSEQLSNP

[21] = HDAC1, 37° C. 30 minutes, read-out: IC50 HDAC1

IC50 (HDAC3): 62 nM
GI50 ([1]; PANC-1 cells, 72 hours incubation, read-out: GI50 PAN): 20 nM
GI50 ([2]; DU145 cells, 72 hours incubation, read-out: GI50 Du1): 20 nM
GI50 [3]: 59 nM
GI50 ([4]; Hela cells, 72 hours incubation, read-out: GI50 Hela): 70 nM
GI50 [5]: 37 nM
GI50 [6]: 38 nM
GI50 ([7]; MCF-7 cells, 72 hours incubation, read-out: GI50 MCF): 50 nM
GI50 [8]: 56 nM
GI50 [9]: 87 nM
GI50 [10]: 49 nM
GI50 ([11]; HT1080 cells, 72 hours incubation, read-out: GI50 HT1): 50 nM
GI50 ([12]; BGC-823 cells, 72 hours incubation, read-out: GI50 BG): 60 nM
GI50 [13]: 36 nM
GI50 ([14]; U937 cells, 72 hours incubation, read-out: GI50 U93): 80 nM
GI50 ([15]; MOLT-4 cells, 72 hours incubation, read-out: GI50 Mol): 40 nM
GI50 ([16]; read-out: GI50 MDA-MB-231, MTT, 72 hours incubation, MDA-MB-231 cells): 62 nM
GI50 ([17]; A549 cells, 72 hours incubation, read-out: GI50 A54): 80 nM
GI50 [18]: 23 nM
GI50 ([19]; lncap cells, 72 hours incubation, read-out: GI50 lnca): 10 nM
GI50 [20]: 38 nM
IC50 (HDAC1; [21]): 155 nM
IC50 (HDAC2): 33 nM
SMILES: C/C=C1\NC(=O)c2nc(cc(SC)n2)CNC(=O)C[C@@H](/C=C/CCSC(C)=O)OC(=O)[C@H](C(C)C)NC1=O [Compound 216]

IC50 (HDAC3): 43 nM
GI50 ([1]; Homo sapiens, PANC-1, 72 h, 72 hours incubation, read-out: GI50 PAN): 530 nM
GI50 ([1]; Homo sapiens, PANC-1, 72 h, 72 hours, present invention, read-out: GI50 PANC-1, a): 530 nM
GI50 ([2]; Homo sapiens, DU-145, 72 h, 72 hours incubation, read-out: GI50 Du1): 10 nM
GI50 ([2]; Homo sapiens, DU-145, 72 h, 72 hours, present invention, read-out: GI50 Du145, a): 12 nM
GI50 ([3]; Homo sapiens, HCC827, 72 h): 18 nM
GI50 ([4]; Homo sapiens, HeLa, 72 h, 72 hours incubation, read-out: GI50 Hela): 220 nM
GI50 ([4]; Homo sapiens, HeLa, 72 h, 72 hours, present invention, read-out: GI50 Hela, a): 220 nM
GI50 ([5]; Homo sapiens, 72 h): 36 nM
GI50 ([6]; Homo sapiens, SGC-7901, 72 h): 43 nM
GI50 ([7]; Homo sapiens, MCF7, 72 h, 72 hours incubation, read-out: GI50 MCF): 400 nM
GI50 ([7]; Homo sapiens, MCF7, 72 h, 72 hours, present invention, read-out: GI50 MCF7, a): 400 nM
GI50 ([8]; Homo sapiens, K562, 72 h): 36 nM
GI50 ([9]; Homo sapiens, NCI-H1975, 72 h): 62 nM
GI50 ([10]; Homo sapiens, Huh-7, 72 h): 92 nM
GI50 ([11]; Homo sapiens, HT-1080, 72 h, 72 hours incubation, read-out: GI50 HT1): 300 nM
GI50 ([11]; Homo sapiens, HT-1080, 72 h, 72 hours, present invention, read-out: GI50 HT1080, a): 300 nM
GI50 ([12]; Homo sapiens, BGC-823, 72 h, 72 hours incubation, read-out: GI50 BG): 200 nM
GI50 ([12]; Homo sapiens, BGC-823, 72 h, 72 hours, present invention, read-out: GI50 BGC823, a): 200 nM
GI50 ([13]; Homo sapiens, 72 h): 12 nM
GI50 ([14]; Homo sapiens, U-937, 72 h, 72 hours incubation, read-out: GI50 U93): 30 nM
GI50 ([14]; Homo sapiens, U-937, 72 h, 72 hours, present invention, read-out: GI50 U937, a): 3 nM
GI50 ([15]; Homo sapiens, MOLT-4, 72 h, 72 hours incubation, read-out: GI50 Mol): 20 nM
GI50 ([15]; Homo sapiens, MOLT-4, 72 h, 72 hours, present invention, read-out: GI50 Molt-4, a): 20 nM
GI50 ([16]; Homo sapiens, MDA-MB-231, 72 h, read-out: GI50 MDA-MB-231, MTT, 72 hours incubation, MDA-MB-231 cells): 85 nM
GI50 ([17]; Homo sapiens, A549, 72 h, 72 hours incubation, read-out: GI50 A54): 100 nM
GI50 ([17]; Homo sapiens, A549, 72 h, 72 hours, present invention, read-out: GI50 A549, a): 100 nM
GI50 ([18]; Homo sapiens, Bel-7402, 72 h): 84 nM
GI50 ([19]; Homo sapiens, LNCaP, 72 h, 72 hours incubation, read-out: GI50 lnca): 200 nM
GI50 ([19]; Homo sapiens, LNCaP, 72 h, 72 hours, present invention, read-out: GI50 lncap, a): 200 nM
GI50 ([20]; Homo sapiens, KBM5, 72 h): 94 nM
IC50 (HDAC1; [21]): 94 nM
IC50 (HDAC1; Table 2, read-out: IC50 HDAC1, a (compounds of the present invention)): < 100 nM
IC50 (HDAC1; Table 3, read-out: IC50 HDAC1, D (non-substituent)): 94 nM
IC50 (HDAC2): 59 nM
SMILES: C/C=C1\NC(=O)c2cccc(n2)CNC(=O)C[C@@H](/C=C/CCSC(=O)CCCCCCC)OC(=O)[C@H](Cc2ccccc2)NC1=O [Compound 14]
